Values belong to the compound of their own block, whether it stands above or below them.
Tests used:
[1] = target: T1, human prostaglandin D2 (DP) receptor (Homo sapiens, UniProt Q13258); assay: [3H]PGD2 specific binding assay, membranes of pcDNA3-hDP transfected COS-M6 cells; conditions: 0.87 nM [3H]PGD2, 60 min at 30° C., pH 7.0, read-out: Ki, competition for [3H]PGD2 specific binding
T1 construct: The full length coding cDNA was constructed as follows; expressed in transfected cells
T1 sequence (Q13258 1-359): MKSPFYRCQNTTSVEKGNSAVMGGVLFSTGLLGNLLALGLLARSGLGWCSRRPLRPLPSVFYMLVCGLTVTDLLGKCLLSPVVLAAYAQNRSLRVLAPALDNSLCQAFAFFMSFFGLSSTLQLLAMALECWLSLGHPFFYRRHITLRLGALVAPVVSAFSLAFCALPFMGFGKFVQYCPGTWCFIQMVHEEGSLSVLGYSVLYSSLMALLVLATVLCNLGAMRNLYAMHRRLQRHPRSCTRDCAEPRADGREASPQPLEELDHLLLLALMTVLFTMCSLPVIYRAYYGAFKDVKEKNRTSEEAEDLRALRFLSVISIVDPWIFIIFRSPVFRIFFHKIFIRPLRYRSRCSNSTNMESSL
Procedure: FIG. 3—Competition for [^3H]PGD2 specific binding to pcDNA3-hDP transfected COS-M6 membranes. [^3H]PGD2 binding assays were performed as described in Example 6. The percentage maximum [^3H]PGD2 specific binding at each competing ligand concentration was determined for PGD2 (▪), the DP receptor agonist BW245C (●), the DP antagonist BW868C (♦), PGE2 (▴), PGF2a (▾), iloprost (□) and the TP-receptor agonist U46619 (∘), over a concentration range up to 100 μM.
The recently cloned human prostaglandin D2 (DP) receptor was subcloned into the pcDNA3 plasmid (Invitrogen) and transfected into COS-M6 cells by the cationic liposome-mediated transfer of DNA using LiofectAMINE reagent (GIBCO/BRL). The cells were maintained in culture for 72 h, then harvested and membranes prepared by differential centrifugation (1000×g for 10 min, then 100,000×g for 30 min) following lysis of the cells by nitrogen cavitation. [^3H]PGD2 specific binding assays were performed in 10 mM BES adjusted to pH 7.0 with KOH and containing 1.0 mM EDTA, 10 mM MnCl2, 0.87 nM [^3H]PGD2 and […] of protein from the 100,000×g membrane fraction. Incubations were conducted for 60 min at 30° C. prior to separation of the bound and free radioligand by rapid filtration through Whatman GF/B filters presoaked at 4° C. in washing buffer (10 mM BES/KOH (pH 7.0) containing 0.01% (w/v)bovine serum albumin). The filters were washed with approximately 16 ml of washing buffer and the residual [^3H]PGD2 bound to the filter was quantified by liquid scintillation counting. Specific binding was defined as the difference between total binding and non-specific binding, determined in the presence of 1 mM PGD2.
The cloned human DP receptor was transfected into COS-M6 cells and [^3H]PGD2 binding assays were performed with membranes prepared from the transfected cells. […] The rank order of affinity for prostaglandins and related synthetic analogs at the human DP receptor was therefore: BW245C>PGD2>BW868C>PGE2>PGF2a=iloprost>U46619. This rank order of potency has been predicted for the DP receptor from previous pharmacological studies.

[2] = target: T1, human prostaglandin D2 (DP) receptor; assay: cAMP assay in HEK293 (EBNA) cells stably expressing the DP receptor; type: cell-based; conditions: for cAMP production: concentrations up to 1 μM; for EC50: 15 min at 37° C., 100 μM RO-20-1724, read-out: EC50, increase in intracellular cAMP production
Procedure: FIG. 5—Increases in intracellular cAMP production in HEK293 (EBNA) cells stably expressing the DP receptor is shown. cAMP assays were performed as described in Example 7. The pmoles of cAMP produced per 1.5×10^5 cells at each ligand concentration was determined for PGD2 (n), the DP receptor agonist BW245C (●), the DP antagonist BW868C (♦), PGE2 (▴), PGE1 ( ? ), PGF2α (▾), iloprost (□) and the TP-receptor agonist U46619 (∘), over a concentration range up to 1 μM.
The recently cloned human prostaglandin D2 (DP) receptor was subcloned into the pCEP4 plasmid (Invitrogen) and transfected into HEK293 (EBNA) cells by the cationic liposome-mediated transfer of DNA using LipofectAMINE™ (Gibco/BRL) reagent. Cells were maintained in culture for 48 h post transfection and then trypsinized, diluted and replated in the presence 200 μg/ml hygromycin B (Calbiochem) to select for transfected cells. Cells were maintained under selection for 3 weeks to ensure a homogeneous population of cells expressing the DP receptor.
(§1) Increases in intracellular cAMP production following agonist challenge was performed in HEK293 (EBNA) cells expressing the DP receptor and control HEK293 (EBNA) cells. Cells were harvested at approximately 80% confluence by incubation in enzyme-free cell dissociation buffer (Gibco/BRL), washed once with HEPES-buffered Krebs-Ringer solution {1.25 mM MgSO4, 1.5 mM CaCl2, 5 mM KCl, 124 mM NaCl, 8 mM glucose, 1.25 mM KH2PO4, and 25 mM HEPES/KOH (pH 7.4)} and resuspended in the same buffer. The cAMP assay was performed in a final volume of 0.2 ml of HEPES-buffer Krebs-Ringer solution and 100 μM of the phosphodiesterase type IV inhibitor RO-20-1724 (Biomol), to prevent hydrolysis of cAMP. RO-20-1724 and the compounds under evaluation were added to the incubation mixture in dimethyl sulfoxide or ethanol to a final vehicle concentration 0.35% (v/v) which was kept constant in all samples. The reaction was initiated by the addition of 1.5×10^5 cells per incubation. Samples were incubated at 37° C. for 15 min and the reaction was then terminated by immersing the samples in boiling water for 3 minutes. Cell viability was always ≧96% as determined by trypan blue exclusion. Measurement of cAMP was performed by radioimmunoassay using [^125I]cAMP (Amersham International).

DP receptor = target: T2, DP receptor (Homo sapiens, UniProt Q13258); assay: Intracellular calcium [Ca2+]i assay in DP-HEK293 (EBNA) stable cell line; type: cell-based; design: [Ca2+]i upon ionophore challenge at end of experiment (viability check): dose or concentration left out as unconfirmed; conditions: for calcium mobilization [Ca2+]i: DP-expressing HEK293 (EBNA) cells
T2 construct: The full length coding cDNA was constructed as follows; expressed in transfected cells
T2 sequence (Q13258 1-359): T1 sequence (Q13258 1-359)
Procedure: FIG. 4—Increases in intracellular calcium [Ca^2+]i in HEK293 (EBNA) cells stably expressing the DP receptor is shown. DP-HEK293 (EBNA) cells were harvested and prepared as described in Example 8. […] At the end of each experiment cells were challenged with 1 μM ionomycin to release [Ca^2+]i followed by quenching of the [Ca^2+]i release with 1 mM EDTA.
(§2) Intracellular calcium [Ca^2+]i measurements were performed with both the DP-HEK293 (EBNA) stable cell line and control HEK293 (EBNA) cells. The cells were harvested with enzyme-free cell dissociation buffer, recovered by centrifugation at 300×g for 5 min at 22° C. and resuspended at 2×10^6 cells/ml in DMEM growth medium without G418 or hygromycin B. The cells were incubated at 37° C., 6% CO2 for 45 min with 2 μM fura-2 AM. Unincorporated fura-2 AM was removed by three washes in HBSS (1.3 mM CaCl2, 5 mM KCl, 0.3 mM KH2PO4, 0.9 mM MgCl2, 138 mM NaCl, 4 mM NaHCO3, 0.3 mM Na2HPO4, 5.6 mM D-glucose) by centrifugation at 300×g, for 5 min at 22° C. The cells were then resuspended at a final concentration of 10^6 cells/ml in HBSS. [Ca^2+]i was measured following agonist challenge of 2*10^6 fura-2 AM loaded cells using a Perkin-Elmer LS-5 spectrophotometer essentially as described (Chan et al., 1994, Journal of Pharmacology and Experimental Therapeutics 269(3): 891-896).

[3] = system: control HEK293 (EBNA) cells; assay: cAMP assay in control HEK293 (EBNA) cells; type: cell-based; conditions: 1 μM; for cAMP production in control cells: control HEK293 (EBNA) cells
Procedure: as §1

[4] = system: control HEK293 (EBNA) cells; assay: Intracellular calcium [Ca2+]i assay in control HEK293 (EBNA) cells; type: cell-based; conditions: 1000 nM
Procedure: as §2

Ki [1]: 1.7 nM
cAMP production [2]: 20 pmol cAMP/1.5×10^5 cells
Structure (SMILES): O=C(O)CCCCCCC1C(=O)N(Cc2ccccc2)C(=O)N1NCC(O)C1CCCCC1 (stereo not drawn) [BW868C]

Ki [1]: 0.9 nM
EC50 [2]: 0.6 nM
Structure (SMILES): O=C(O)CCCCCCC1C(=O)NC(=O)N1CCC(O)C1CCCCC1 (stereo not drawn) [BW245C]

Ki [1]: ~1850 nM
Structure (SMILES): CCCCC[C@H](O)/C=C/[C@@H]1[C@@H](C/C=C\CCCC(=O)O)[C@H]2CO[C@@H]1C2 [U46619]

Ki [1]: 630 nM
EC50 [2]: > 500 nM
Structure (SMILES): CC#CCC(C)[C@H](O)/C=C/[C@@H]1[C@H]2C/C(=C/CCCC(=O)O)C[C@H]2C[C@H]1O (stereo partly drawn) [iloprost]

Ki [1]: 512 nM
Structure (SMILES): CCCCC[C@H](O)/C=C/[C@@H]1[C@@H](C/C=C\CCCC(=O)O)[C@@H](O)C[C@H]1O [PGF2a]

Further lines, the compound ahead of its results:

Structure (SMILES): C[C@H](CCC(=O)O)C[C@H](C)C[C@H](C)C(=O)/C=C(\O)[C@H](C)C[C@H](C)C/C=C/[C@@H](C)[C@@H](O)[C@@H](C)[C@@H](O)C[C@@H]1CC[C@@](C)([C@H]2CC[C@@](C)([C@@H](C)O)O2)O1 [ionomycin]
[Ca2+]i upon ionophore challenge at end of experiment (viability check) (DP receptor): large increase in [Ca^2+]i

Structure (SMILES): CCCCC[C@H](O)/C=C/[C@H]1[C@H](O)CC(=O)[C@@H]1C/C=C\CCCC(=O)O [PGE2]
Ki [1]: 101 nM
fold less cAMP in control cells than in similarly challenged DP-expressing cells [3]: 14 fold
cAMP production in control cells [3]: 6 pmoles/1.5×10^5 cells

Structure (SMILES): CCCCC[C@H](O)/C=C/[C@H]1[C@H](O)CC(=O)[C@@H]1CCCCCCC(=O)O [PGE1]
fold less cAMP in control cells than in similarly challenged DP-expressing cells [3]: 14 fold
cAMP production in control cells [3]: 6 pmoles/1.5×10^5 cells

Structure (SMILES): CCCCC[C@H](O)/C=C/[C@H]1C(=O)C[C@H](O)[C@@H]1C/C=C\CCCC(=O)O [PGD2, Prostaglandin D2]
Ki [1]: 1.1 nM
fold less potent than BW245C (cAMP EC50) [2]: 10 fold
EC50 [2]: 6.4 nM
cAMP production [2]: > 140 pmol cAMP/1.5×10^5 cells
calcium mobilization [Ca2+]i (DP receptor; 10 to 1000 nM): increased calcium mobilization
calcium mobilization [Ca2+]i (DP receptor; concentrations below 10 nM, versus vehicle): failed to induce a response
change in [Ca2+]i in control cells [4]: did not provoke any change
